ChEMBL document CHEMBL4014279, “Synthesis of novel pyrazolo[3,4-b]quinolinyl acetamide analogs, their evaluation for antimicrobial and anticancer activities, validation by molecular modeling and CoMFA analysis” (Eur J Med Chem, 2017)
In brackets after ≈: the same amount, converted by molar mass.

Experiments:
Staphylococcus aureus [1] = test: Antibacterial activity against Staphylococcus aureus MTCC 96 after 24 hrs by well diffusion method; type: functional; conditions: MTCC 96, 24 h
Raoultella planticola = test: Antibacterial activity against Klebsiella planticola MTCC 530 after 24 hrs by well diffusion method; type: functional; conditions: MTCC 530, 24 h
Escherichia coli = test: Antibacterial activity against Escherichia coli MTCC 739 after 24 hrs by well diffusion method; type: functional; conditions: MTCC 739, 24 h
HeLa = test: Cytotoxicity against human HeLa cells after 24 hrs by MTT assay; type: functional, cell-based
Pseudomonas aeruginosa = test: Antibacterial activity against Pseudomonas aeruginosa MTCC 2453 after 24 hrs by well diffusion method; type: functional; conditions: MTCC 2453, 24 h
HepG2 = test: Cytotoxicity against human HepG2 cells after 24 hrs by MTT assay; type: functional, cell-based; conditions: HepG2, 24 h
Micrococcus luteus = test: Antibacterial activity against Micrococcus luteus MTCC 2470 after 24 hrs by well diffusion method; type: functional; conditions: MTCC 2470, 24 h
A549 = test: Cytotoxicity against human A549 cells after 24 hrs by MTT assay; type: functional, cell-based; conditions: A549, 24 h
Staphylococcus aureus [2] = test: Antibacterial activity against Staphylococcus aureus MLS16 MTCC 2940 after 24 hrs by well diffusion method; type: functional; conditions: MLS16 MTCC 2940, 24 h
COLO 205 = test: Cytotoxicity against human COLO205 cells after 24 hrs by MTT assay; type: functional, cell-based; conditions: COLO 205, 24 h
Bacillus subtilis = test: Antibacterial activity against Bacillus subtilis MTCC 121 after 24 hrs by well diffusion method; type: functional; conditions: MTCC 121, 24 h

| SMILES | MIC (Staphylococcus aureus [1]) | MIC (Escherichia coli) | MIC (Pseudomonas aeruginosa) | MIC (Micrococcus luteus) | MIC (Staphylococcus aureus [2]) | MIC (Bacillus subtilis) | MIC (Raoultella planticola) | IC50 (HeLa) | IC50 (HepG2) | IC50 (A549) | IC50 (COLO 205) |
| --- | --- | --- | --- | --- | --- | --- | --- | --- | --- | --- | --- |
| O=C(Cn1nc(C(F)(F)F)c2c(-c3ccccc3)c3ccccc3nc21)NC1CCCCC1 | 7.8 to 125 mg/L (≈ 17.2 to 276 µM) | 7.8 to 125 mg/L (≈ 17.2 to 276 µM) | 7.8 to 125 mg/L (≈ 17.2 to 276 µM) | 7.8 to 125 mg/L (≈ 17.2 to 276 µM) | 7.8 to 125 mg/L (≈ 17.2 to 276 µM) | 7.8 to 125 mg/L (≈ 17.2 to 276 µM) | 7.8 to 125 mg/L (≈ 17.2 to 276 µM) | 29.7 µM | 30.2 µM | 25.9 µM | 32.1 µM |
| Cc1c2ccccc2nc2c1c(C(F)(F)F)nn2CC(=O)N1CCCCC1 | 7.8 to 125 mg/L (≈ 20.7 to 332 µM) | 7.8 to 125 mg/L (≈ 20.7 to 332 µM) | 7.8 to 125 mg/L (≈ 20.7 to 332 µM) | 7.8 to 125 mg/L (≈ 20.7 to 332 µM) | 7.8 to 125 mg/L (≈ 20.7 to 332 µM) | 7.8 to 125 mg/L (≈ 20.7 to 332 µM) | 7.8 to 125 mg/L (≈ 20.7 to 332 µM) | 33.9 µM | 36.6 µM | 32.5 µM | 25.4 µM |
| O=C(Cn1nc(C(F)(F)F)c2c(-c3ccccc3)c3ccccc3nc21)N1CCCC1 | 7.8 to 125 mg/L (≈ 18.4 to 295 µM) | 7.8 to 125 mg/L (≈ 18.4 to 295 µM) | 7.8 to 125 mg/L (≈ 18.4 to 295 µM) | 7.8 to 125 mg/L (≈ 18.4 to 295 µM) | 7.8 to 125 mg/L (≈ 18.4 to 295 µM) | 7.8 to 125 mg/L (≈ 18.4 to 295 µM) | 7.8 to 125 mg/L (≈ 18.4 to 295 µM) | 29.6 µM | 33.3 µM | 22.5 µM | 25.8 µM |
| CCNC(=O)Cn1nc(C(F)(F)F)c2c(-c3ccccc3)c3ccccc3nc21 | 7.8 to 125 mg/L (≈ 19.6 to 314 µM) | 7.8 to 125 mg/L (≈ 19.6 to 314 µM) | 7.8 to 125 mg/L (≈ 19.6 to 314 µM) | 7.8 to 125 mg/L (≈ 19.6 to 314 µM) | 7.8 to 125 mg/L (≈ 19.6 to 314 µM) | 7.8 to 125 mg/L (≈ 19.6 to 314 µM) | 7.8 to 125 mg/L (≈ 19.6 to 314 µM) | 26.5 µM | 22.2 µM | 29.5 µM | 18.9 µM |
| Cc1nn(CC(=O)N2CCCCC2)c2nc3ccccc3c(C)c12 | 7.8 to 125 mg/L (≈ 24.2 to 388 µM) | 7.8 to 125 mg/L (≈ 24.2 to 388 µM) | 7.8 to 125 mg/L (≈ 24.2 to 388 µM) | 7.8 to 125 mg/L (≈ 24.2 to 388 µM) | 7.8 to 125 mg/L (≈ 24.2 to 388 µM) | 7.8 to 125 mg/L (≈ 24.2 to 388 µM) | 7.8 to 125 mg/L (≈ 24.2 to 388 µM) | 17 µM | 15.5 µM | 20.5 µM | 11.9 µM |
| Cc1nn(CC(=O)NC2CC2)c2nc3ccccc3c(C)c12 | 7.8 to 125 mg/L (≈ 26.5 to 425 µM) | 7.8 to 125 mg/L (≈ 26.5 to 425 µM) | 7.8 to 125 mg/L (≈ 26.5 to 425 µM) | 7.8 to 125 mg/L (≈ 26.5 to 425 µM) | 7.8 to 125 mg/L (≈ 26.5 to 425 µM) | 7.8 to 125 mg/L (≈ 26.5 to 425 µM) | 7.8 to 125 mg/L (≈ 26.5 to 425 µM) | 16.7 µM | 15.2 µM | 14.3 µM | 11.9 µM |
| CNC(=O)Cn1nc(C(F)(F)F)c2c(C)c3ccccc3nc21 | 7.8 to 125 mg/L (≈ 24.2 to 388 µM) | 7.8 to 125 mg/L (≈ 24.2 to 388 µM) | 7.8 to 125 mg/L (≈ 24.2 to 388 µM) | 7.8 to 125 mg/L (≈ 24.2 to 388 µM) | 7.8 to 125 mg/L (≈ 24.2 to 388 µM) | 7.8 to 125 mg/L (≈ 24.2 to 388 µM) | 7.8 to 125 mg/L (≈ 24.2 to 388 µM) | 17.2 µM | 18.9 µM | 11.3 µM | 12.8 µM |

Now from value to compound, other results behind:

| MIC (Staphylococcus aureus [1]) | MIC (Escherichia coli) | MIC (Pseudomonas aeruginosa) | MIC (Micrococcus luteus) | MIC (Staphylococcus aureus [2]) | MIC (Bacillus subtilis) | SMILES | MIC (Raoultella planticola) | IC50 (HeLa) | IC50 (HepG2) | IC50 (A549) | IC50 (COLO 205) |
| --- | --- | --- | --- | --- | --- | --- | --- | --- | --- | --- | --- |
| 7.8 to 125 mg/L (≈ 23.2 to 372 µM) | 7.8 to 125 mg/L (≈ 23.2 to 372 µM) | 7.8 to 125 mg/L (≈ 23.2 to 372 µM) | 7.8 to 125 mg/L (≈ 23.2 to 372 µM) | 7.8 to 125 mg/L (≈ 23.2 to 372 µM) | 7.8 to 125 mg/L (≈ 23.2 to 372 µM) | CCNC(=O)Cn1nc(C(F)(F)F)c2c(C)c3ccccc3nc21 | 7.8 to 125 mg/L (≈ 23.2 to 372 µM) | 19.2 µM | 20.8 µM | 22.8 µM | 16.4 µM |
| 7.8 to 125 mg/L (≈ 22.4 to 359 µM) | 7.8 to 125 mg/L (≈ 22.4 to 359 µM) | 7.8 to 125 mg/L (≈ 22.4 to 359 µM) | 7.8 to 125 mg/L (≈ 22.4 to 359 µM) | 7.8 to 125 mg/L (≈ 22.4 to 359 µM) | 7.8 to 125 mg/L (≈ 22.4 to 359 µM) | Cc1c2ccccc2nc2c1c(C(F)(F)F)nn2CC(=O)NC1CC1 | 7.8 to 125 mg/L (≈ 22.4 to 359 µM) | 21 µM | 18.6 µM | 19.2 µM | 22.7 µM |
| > 125 mg/L | > 125 mg/L | > 125 mg/L | 15.6 mg/L (≈ 58.1 µM) | > 125 mg/L | 62.5 mg/L (≈ 233 µM) | CNC(=O)Cn1nc(C)c2c(C)c3ccccc3nc21 | > 125 mg/L | 18.1 µM | 17.9 µM | 20.2 µM | 16.3 µM |
| 7.8 to 125 mg/L (≈ 23.2 to 372 µM) | 7.8 to 125 mg/L (≈ 23.2 to 372 µM) | 7.8 to 125 mg/L (≈ 23.2 to 372 µM) | 7.8 to 125 mg/L (≈ 23.2 to 372 µM) | 7.8 to 125 mg/L (≈ 23.2 to 372 µM) | 7.8 to 125 mg/L (≈ 23.2 to 372 µM) | Cc1nn(CC(=O)NC2CCCCC2)c2nc3ccccc3c(C)c12 | 7.8 to 125 mg/L (≈ 23.2 to 372 µM) | 14.2 µM | 10.8 µM | 12.6 µM | 20.1 µM |
